Reference: ChEMBL document CHEMBL5247598 (Eur J Med Chem, 2022)
pEC50, pIC50: −log10 of the molar value. Activity calls are given as the source filed them. The rule behind the calls is not given here.

Assays:
[1] = tested on: NCI/ADR-RES; test: Induction of apoptosis in human NCI-ADR-RES cells assessed as late apoptotic cells at 3 uM incubated for 24 hrs by Annexin V-FITC and DAPI staining based flow cytometry (Rvb= 0.66 %); assay type: functional
[2] = tested on: NCI/ADR-RES; test: Reversal of P-gp-mediated multidrug resistance in human NCI-ADR-RES cells assessed as change in ABCB1 expression level at 1 to 10 uM incubated for 48 hrs in presence of doxorubicin by Western blot analysis; assay type: functional, cell-based; conditions: dose 1-10 µM
[3] = tested on: NCI/ADR-RES; test: Induction of apoptosis in human NCI-ADR-RES cells assessed as viable cells at 3 uM incubated for 24 hrs by Annexin V-FITC and DAPI staining based flow cytometry (Rvb= 97.9 %); assay type: functional; conditions: read-out: Activity
[4] = tested on: NCI/ADR-RES; test: Induction of apoptosis in human NCI-ADR-RES cells assessed as late apoptotic cells at 3 uM incubated for 48 hrs by Annexin V-FITC and DAPI staining based flow cytometry (Rvb= 0.66 %); assay type: functional
[5] = tested on: NCI/ADR-RES; test: Induction of apoptosis in human NCI-ADR-RES cells assessed as early apoptotic cells at 8 uM incubated for 24 hrs in presence of doxorubicin by Annexin V-FITC and DAPI staining based flow cytometry (Rvb= 0.89 %); assay type: functional
[6] = tested on: NCI/ADR-RES; test: Induction of apoptosis in human NCI-ADR-RES cells assessed as viable cells at 8 uM incubated for 48 hrs in presence of doxorubicin by Annexin V-FITC and DAPI staining based flow cytometry (Rvb= 97.9 %); assay type: functional; conditions: read-out: Activity
[7] = Cytotoxicity against mouse MPC-5 cells assessed as inhibition of cell growth at 50 uM incubated for 48 hrs by MTT assay; assay type: toxicity, cell-based; conditions: mpc-5, 48 h
[8] = tested on: NCI-ADR-RES; test: Inhibition of PI3K/AKT signaling pathway in human NCI-ADR-RES cells assessed as changes in caspase-6 level at 3 uM incubated for 24 to 48 hrs in presence of doxorubicin by Western blot analysis; assay type: cell-based; conditions: time 24-48 hrs
[9] = tested on: A549/TR; test: Antiproliferative activity against human Taxol resistant A549 cells assessed as inhibition of cell growth at 50 uM incubated for 48 hrs by MTT assay; assay type: functional, cell-based
[10] = tested on: NCI/ADR-RES; test: Antiproliferative activity against human multidrug resistant NCI-ADR-RES cells overexpressing P-gp assessed as reduction in cell viability incubated for 48 hrs by MTT assay; assay type: functional, cell-based
[11] = tested on: NCI/ADR-RES; test: Induction of apoptosis in human NCI-ADR-RES cells assessed as necrotic cells at 8 uM incubated for 48 hrs in presence of doxorubicin by Annexin V-FITC and DAPI staining based flow cytometry (Rvb= 0.55 %); assay type: functional
[12] = tested on: NCI/ADR-RES; test: Induction of apoptosis in human NCI-ADR-RES cells assessed as early apoptotic cells at 3 uM incubated for 48 hrs by Annexin V-FITC and DAPI staining based flow cytometry (Rvb= 0.89 %); assay type: functional
[13] = tested on: NCI/ADR-RES; test: Reversal of P-gp-mediated multidrug resistance in human NCI-ADR-RES cells assessed as change in ABCB1 expression level at 1 to 10 uM incubated for 24 hrs by Western blot analysis; assay type: functional, cell-based; conditions: dose 1-10 µM
[14] = tested on: NCI/ADR-RES; test: Induction of apoptosis in human NCI-ADR-RES cells assessed as necrotic cells at 3 uM incubated for 48 hrs by Annexin V-FITC and DAPI staining based flow cytometry (Rvb= 0.55 %); assay type: functional
[15] = tested on: NCI/ADR-RES; test: Reversal of P-gp-mediated multidrug resistance in human NCI-ADR-RES cells assessed as change in ABCB1 expression level at 1 to 10 uM incubated for 48 hrs by Western blot analysis; assay type: functional, cell-based; conditions: dose 1-10 µM
[16] = tested on: NCI-ADR-RES; test: Inhibition of PI3K/AKT signaling pathway in human NCI-ADR-RES cells assessed as decrease in Bcl-xL level at 3 uM incubated for 24 to 48 hrs in presence of doxorubicin by Western blot analysis; assay type: cell-based; conditions: time 24-48 hrs
[17] = tested on: NCI-ADR-RES; test: Inhibition of PI3K/AKT signaling pathway in human NCI-ADR-RES cells assessed as decrease in AKT phosphorylation at 3 uM incubated for 24 to 48 hrs in presence of doxorubicin by Western blot analysis; assay type: cell-based; conditions: time 24-48 hrs
[18] = tested on: HCT-8; test: Antiproliferative activity against human Taxol resistant HCT-8 cells assessed as inhibition of cell growth at 50 uM incubated for 48 hrs by MTT assay; assay type: functional, cell-based
[19] = tested on: NCI/ADR-RES; test: Induction of apoptosis in human NCI-ADR-RES cells assessed as late apoptotic cells at 8 uM incubated for 48 hrs in presence of doxorubicin by Annexin V-FITC and DAPI staining based flow cytometry (Rvb= 0.66 %); assay type: functional
[20] = tested on: L02; test: Cytotoxicity against human L02 cells assessed as inhibition of cell growth at 50 uM incubated for 48 hrs by MTT assay; assay type: toxicity, cell-based; conditions: l02, 48 h
[21] = tested on: NCI/ADR-RES; test: Induction of apoptosis in human NCI-ADR-RES cells assessed as necrotic cells at 8 uM incubated for 24 hrs in presence of doxorubicin by Annexin V-FITC and DAPI staining based flow cytometry (Rvb= 0.55 %); assay type: functional
[22] = tested on: MCF7; test: Antiproliferative activity against human MCF7 cells assessed as reduction in cell viability incubated for 48 hrs by MTT assay; assay type: functional, cell-based; conditions: MCF7, 48 h, read-out: IC50
[23] = tested on: NCI-ADR-RES; test: Inhibition of PI3K/AKT signaling pathway in human NCI-ADR-RES cells assessed as increase in Caspase-3 level at 3 uM incubated for 24 to 48 hrs in presence of doxorubicin by Western blot analysis; assay type: cell-based; conditions: time 24-48 hrs
[24] = tested on: NCI-ADR-RES; test: Inhibition of PI3K/AKT signaling pathway in human NCI-ADR-RES cells assessed as decrease in Bcl-2 level at 3 uM incubated for 24 to 48 hrs in presence of doxorubicin by Western blot analysis; assay type: cell-based; conditions: time 24-48 hrs
[25] = tested on: NCI-ADR-RES; test: Inhibition of PI3K/AKT signaling pathway in human NCI-ADR-RES cells assessed as increase in cleaved PARP level at 3 uM incubated for 24 to 48 hrs in presence of doxorubicin by Western blot analysis; assay type: cell-based; conditions: time 24-48 hrs
[26] = tested on: P-gp; test: Therapeutic index, ratio of IC50 for cytotoxicity against human HEK293T cells to EC50 for reversal of P-gp-mediated multidrug resistance in human NCI-ADR-RES cells; assay type: toxicity, cell-based; conditions: read-out: Ratio IC50/EC50
[27] = tested on: NCI/ADR-RES; test: Induction of apoptosis in human NCI-ADR-RES cells assessed as viable cells at 3 uM incubated for 48 hrs by Annexin V-FITC and DAPI staining based flow cytometry (Rvb= 97.9 %); assay type: functional; conditions: read-out: Activity
[28] = molecular target: ATP-dependent translocase ABCB1 (Homo sapiens, UniProt P08183); test: Effect on P-gp (unknown origin) ATPase activity assessed as increased ATP consumption using Mg-ATP as substrate preincubated for 5 min followed by Mg-ATP addition and measured after 40 mins by P-gp Glo luminescence assay
[29] = tested on: NCI/ADR-RES; test: Antiproliferative activity against human multidrug resistant NCI-ADR-RES cells assessed as inhibition of cell growth at 50 uM incubated for 48 hrs by MTT assay; assay type: functional, cell-based
[30] = tested on: NCI/ADR-RES; test: Induction of apoptosis in human NCI-ADR-RES cells assessed as late apoptotic cells at 8 uM incubated for 24 hrs in presence of doxorubicin by Annexin V-FITC and DAPI staining based flow cytometry (Rvb= 0.66 %); assay type: functional
[31] = tested on: NCI/ADR-RES; test: Induction of apoptosis in human NCI-ADR-RES cells assessed as early apoptotic cells at 8 uM incubated for 48 hrs in presence of doxorubicin by Annexin V-FITC and DAPI staining based flow cytometry (Rvb= 0.89 %); assay type: functional

Chain of ATP-dependent translocase ABCB1 (P08183 whole entry): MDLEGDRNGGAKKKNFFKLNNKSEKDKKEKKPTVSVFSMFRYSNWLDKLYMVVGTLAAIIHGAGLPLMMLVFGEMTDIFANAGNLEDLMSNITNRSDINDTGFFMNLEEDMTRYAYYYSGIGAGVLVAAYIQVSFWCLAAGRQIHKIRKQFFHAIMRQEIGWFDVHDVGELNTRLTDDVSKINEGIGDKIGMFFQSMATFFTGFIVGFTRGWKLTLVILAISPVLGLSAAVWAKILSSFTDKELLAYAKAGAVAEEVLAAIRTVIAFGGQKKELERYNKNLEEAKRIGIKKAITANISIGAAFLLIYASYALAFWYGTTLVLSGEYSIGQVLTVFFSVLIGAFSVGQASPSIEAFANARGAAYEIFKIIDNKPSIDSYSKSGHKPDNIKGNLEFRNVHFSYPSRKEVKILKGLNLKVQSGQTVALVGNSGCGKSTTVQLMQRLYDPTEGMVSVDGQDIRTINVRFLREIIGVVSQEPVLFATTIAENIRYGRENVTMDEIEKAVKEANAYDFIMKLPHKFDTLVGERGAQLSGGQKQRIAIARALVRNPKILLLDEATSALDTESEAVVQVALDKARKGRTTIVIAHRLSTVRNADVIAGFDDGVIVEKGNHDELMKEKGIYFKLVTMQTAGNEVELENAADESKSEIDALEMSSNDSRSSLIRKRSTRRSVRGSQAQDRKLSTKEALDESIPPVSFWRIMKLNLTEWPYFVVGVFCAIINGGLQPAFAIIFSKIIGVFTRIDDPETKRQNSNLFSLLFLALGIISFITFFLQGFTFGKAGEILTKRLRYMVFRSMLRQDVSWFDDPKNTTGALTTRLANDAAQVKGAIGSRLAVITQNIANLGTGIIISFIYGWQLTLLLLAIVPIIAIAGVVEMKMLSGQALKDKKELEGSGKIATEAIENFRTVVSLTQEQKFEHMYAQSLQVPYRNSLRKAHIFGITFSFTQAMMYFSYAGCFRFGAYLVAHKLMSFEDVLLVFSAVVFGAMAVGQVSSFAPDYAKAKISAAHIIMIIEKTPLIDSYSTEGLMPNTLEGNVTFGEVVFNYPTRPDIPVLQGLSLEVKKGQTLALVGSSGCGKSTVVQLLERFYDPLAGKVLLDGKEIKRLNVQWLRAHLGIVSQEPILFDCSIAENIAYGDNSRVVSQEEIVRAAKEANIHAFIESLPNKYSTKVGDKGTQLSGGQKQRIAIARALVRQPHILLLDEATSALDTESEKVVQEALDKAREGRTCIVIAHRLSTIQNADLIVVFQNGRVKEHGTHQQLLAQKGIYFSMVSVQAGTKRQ

With C=C1[C@H](OC(C)=O)[C@@H](OC(C)=O)[C@@H](OC(C)=O)C(C)(C)/C=C/[C@H](C)[C@H](OC(=O)c2ccccc2)[C@@]2(O)C[C@@](C)(OC(=O)C(C)(C)C)[C@H](OC(C)=O)[C@@H]2[C@H]1OCC(C)C the Activity [1] was 0.73%, the Activity [2] was “Active” and the viability at 3 µM [3] was 97.5%. For the same molecule, the Activity [4] was 0.73%, the Activity [5] was 10.2% and the viability at 8 µM [6] was 65%. The Activity [7] was “Non-Toxic”, the inhibition [8] was “inactive” and the Activity [9] was “inactive”. For the same molecule, the pIC50 [10] was < 4.00, the Activity [11] was 10.7% and the Activity [12] was 0.69%. The Activity [13] was “inactive”, the Activity [14] was 0.43% and the Activity [15] was “inactive”. The inhibition [16] was “Active”, the inhibition [17] was “Active” and the Activity [18] was “inactive”. For the same molecule, the Activity [19] was 8.03%, the Activity [20] was “Non-Toxic” and the Activity [21] was 0.24%. For the same molecule, the pIC50 [22] was < 4.00, the inhibition [23] was “Active” and the inhibition [24] was “Active”. For the same molecule, the inhibition [25] was “Active”, the selectivity ratio [26] was 309 and the viability at 3 µM [27] was 98.4%. For the same molecule, the pEC50 [28] was 6.45, the Activity [29] was “inactive” and the Activity [30] was 1.56%. The Activity [31] was 16.4%.
